What was measured:
Type in all cases: in vivo
[1] = tested on: giant foxtail (Setaria faberii); assay: Test A preemergence; conditions: Setaria faberi, pre-emergence, 240 h, Preemergence
How it was run: (§1)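 Preemergence soil spray on seeded pots or post-emergence spray on 1–2 leaf plants, in loam–sand blend. Greenhouse ~10 d. Visual rating 0–100 against untreated plants.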

Kochia (Kochia scoparia) [2] = assay: Test A preemergence; conditions: Bassia scoparia, pre-emergence, 240 h, Preemergence
How it was run: as §1

[3] = tested on: ryegrass, Italian (Italian ryegrass, Lolium multiflorum); assay: Test A preemergence; conditions: Lolium multiflorum, pre-emergence, 240 h, Preemergence
How it was run: as §1

[4] = tested on: pigweed (Amaranthus retroflexus); assay: Test A preemergence; conditions: Amaranthus retroflexus, pre-emergence, 240 h, Preemergence
[5] = tested on: ragweed (common ragweed, Ambrosia elatior); assay: Test A preemergence; conditions: Ambrosia artemisiifolia, pre-emergence, 240 h, Preemergence
How it was run: as §1

[6] = tested on: barnyardgrass (Echinochloa crus-galli); assay: Test A preemergence; conditions: Echinochloa crus-galli, pre-emergence, 240 h, Preemergence
How it was run: as §1

[7] = tested on: giant foxtail (Setaria faberii); assay: Test A postemergence; conditions: Setaria faberi, post-emergence, 240 h, Postemergence, read-out: Plant response rating, Foxtail, Giant
How it was run: as §1

Kochia (Kochia scoparia) [8] = assay: Test A postemergence; conditions: Bassia scoparia, post-emergence, 240 h, Postemergence, read-out: Plant response rating, Kochia
How it was run: as §1

[9] = tested on: wheat (Triticum aestivum); assay: Test A postemergence; conditions: Triticum aestivum, post-emergence, 240 h, Postemergence, read-out: Plant response rating, Wheat
How it was run: as §1

[10] = tested on: blackgrass (Alopecurus myosuroides); assay: Test A postemergence; conditions: Alopecurus myosuroides, post-emergence, 240 h, Postemergence, read-out: Plant response rating, Blackgrass
How it was run: as §1

[11] = tested on: ryegrass, Italian (Italian ryegrass, Lolium multiflorum); assay: Test A postemergence; conditions: Lolium multiflorum, post-emergence, 240 h, Postemergence, read-out: Plant response rating, Ryegrass, Italian
How it was run: as §1

[12] = tested on: pigweed (Amaranthus retroflexus); assay: Test A postemergence; conditions: Amaranthus retroflexus, post-emergence, 240 h, Postemergence, read-out: Plant response rating, Pigweed
How it was run: as §1

corn (Zea mays) = assay: Test A postemergence; conditions: Zea mays, post-emergence, 240 h, Postemergence
How it was run: as §1

[13] = tested on: Galium (catchweed bedstraw, Galium aparine); assay: Test A postemergence; conditions: Galium, post-emergence, 240 h, Postemergence, read-out: Plant response rating, Galium
How it was run: as §1

[14] = tested on: ragweed (common ragweed, Ambrosia elatior); assay: Test A postemergence; conditions: Ambrosia artemisiifolia, post-emergence, 240 h, Postemergence, read-out: Plant response rating, Ragweed
How it was run: as §1

[15] = tested on: barnyardgrass (Echinochloa crus-galli); assay: Test A postemergence; conditions: Echinochloa crus-galli, post-emergence, 240 h, Postemergence, read-out: Plant response rating, Barnyardgrass
How it was run: as §1

rice (Oryra sativa) = assay: Test B flooded paddy test; conditions: Oryza sativa, 250 g ai/ha, Flood; 0 to 100 scale where 0 is no effect and 100 is complete control; read-out: Rice plant response rating
How it was run: (§2)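 Response scored visually against untreated controls, 0 = no effect and 100 = complete control, 13–15 d after treatment in the greenhouse. Compounds added to paddy water held 3 cm above soil surface. Treatment given at 2-leaf stage.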

[16] = tested on: ducksalad (Heteranthera limosa); assay: Test B flooded paddy test; conditions: Heteranthera limosa, 250 g ai/ha, Flood; 0 to 100 scale where 0 is no effect and 100 is complete control; read-out: Ducksalad plant response rating
How it was run: as §2

[17] = tested on: sedge, umbrella (small-flower umbrella sedge, Cyperus difformis); assay: Test B flooded paddy test; conditions: Cyperus difformis, 250 g ai/ha, Flood; 0 to 100 scale where 0 is no effect and 100 is complete control; read-out: Sedge, Umbrella plant response rating
How it was run: as §2

[18] = tested on: barnyardgrass (Echinochloa crus-galli); assay: Test B flooded paddy test; conditions: Echinochloa crus-galli, 250 g ai/ha, Flood; 0 to 100 scale where 0 is no effect and 100 is complete control; read-out: Barnyardgrass plant response rating
How it was run: as §2

[19] = 125 g ai/ha, visual injury after approximately 10 d, 0 to 100 scale where 0 is no effect and 100 is complete control
[20] = 31 g ai/ha, visual injury after approx. 10 d, 0 to 100 scale, 0 no effect, 100 complete control

CN1CC[C@H](c2ccccc2C(F)(F)F)[C@@H](C(=O)Nc2cccc(F)c2F)C1=O [Compound 1009]
0%: pest or weed control at 125 g/ha ([1]; 125 g ai/ha, visual injury rating after approximately 10 d, read-out: Foxtail, Giant plant response rating (0 to 100 scale, 0 is no effect, 100 is complete control)) | pest or weed control at 31 g/ha ([1]; 31 g ai/ha, 0 to 100 scale (0 no effect, 100 complete control), read-out: Plant response rating, Foxtail, Giant) | pest or weed control at 31 g/ha (Kochia (Kochia scoparia) [2]; 31 g ai/ha, 0 to 100 scale where 0 is no effect and 100 is complete control, read-out: Kochia plant response rating) | pest or weed control at 125 g/ha (Kochia (Kochia scoparia) [2]; 125 g ai/ha, visual injury rating after approximately 10 d, read-out: Kochia plant response rating (0 to 100 scale, 0 is no effect, 100 is complete control)) | pest or weed control at 31 g/ha ([3]; 31 g ai/ha, 0 to 100 scale where 0 is no effect and 100 is complete control, read-out: Ryegrass, Italian plant response rating) | pest or weed control at 125 g/ha ([3]; 125 g ai/ha, visual injury rating after approximately 10 d, read-out: Ryegrass, Italian plant response rating (0 to 100 scale, 0 is no effect, 100 is complete control)) | pest or weed control at 31 g/ha ([4]; 31 g ai/ha, 0 to 100 scale where 0 is no effect and 100 is complete control, read-out: Pigweed plant response rating) | pest or weed control at 125 g/ha ([4]; 125 g ai/ha, visual injury rating after approximately 10 d, read-out: Pigweed plant response rating (0 to 100 scale, 0 is no effect, 100 is complete control)) | pest or weed control at 31 g/ha ([5]; 31 g ai/ha, 0 to 100 scale where 0 is no effect and 100 is complete control, read-out: Ragweed plant response rating) | pest or weed control at 125 g/ha ([5]; 125 g ai/ha, visual injury rating after approximately 10 d, read-out: Ragweed plant response rating (0 to 100 scale, 0 is no effect, 100 is complete control)) | pest or weed control at 125 g/ha ([6]; 125 g ai/ha, visual injury rating after approximately 10 d, read-out: Barnyardgrass plant response rating (0 to 100 scale, 0 is no effect, 100 is complete control)) | pest or weed control at 31 g/ha ([6]; 31 g ai/ha, 0 to 100 scale (0 no effect, 100 complete control), read-out: Plant response rating, Barnyardgrass) | pest or weed control at 125 g/ha [7, 19] | pest or weed control at 31 g/ha [7, 20] | pest or weed control at 125 g/ha (Kochia (Kochia scoparia) [8]; [19]) | pest or weed control at 31 g/ha (Kochia (Kochia scoparia) [8]; [20]) | plant injury at 125 g/ha [9, 19] | plant injury at 31 g/ha [9, 20] | pest or weed control at 125 g/ha [10, 19] | pest or weed control at 31 g/ha [10, 20] | pest or weed control at 125 g/ha [11, 19] | pest or weed control at 31 g/ha [11, 20] | pest or weed control at 125 g/ha [12, 19] | pest or weed control at 31 g/ha [12, 20] | Corn plant response rating (crop injury, 0 = no effect, 100 = complete kill) at 125 g/ha (corn (Zea mays); [19]) | Corn plant response rating (crop injury, 0 = no effect, 100 = complete kill) at 31 g/ha (corn (Zea mays); [20]) | pest or weed control at 125 g/ha [13, 19] | pest or weed control at 31 g/ha [13, 20] | pest or weed control at 125 g/ha [14, 19] | pest or weed control at 31 g/ha [14, 20] | pest or weed control at 125 g/ha [15, 19] | pest or weed control at 31 g/ha [15, 20] | pest or weed control at 250 g/ha (rice (Oryra sativa)) | pest or weed control at 250 g/ha [16] | pest or weed control at 250 g/ha [17] | pest or weed control at 250 g/ha [18]
